# Patent US4588731A, “Derivatives of isoxazolo[4,5-c]quinoline(2H)-3-one and method of preparation and use as anxiolytic agents” (Roussel Uclaf, priority 1985, dated 1986)
# What was measured:
# [1] = target: benzodiazepine receptors; assay: Affinity for benzodiazepine receptors (3H diazepam displacement, rat brain cortex membranes); assay type: binding, rats; details: 3H diazepam 10^-9 M, 30 minutes at 0° C, read-out: C.I. 50 (concentration inhibiting 50% of the specific bond of 3H diazepam)
# Method: A. Affinity for benzodiazepine receptors
# The technique was inspired by that of Mohler et al [Science, Vol. 198 p. 849-851 (1977] in which the cortex from the brains of male rats weighing on average 150 g were homogenized to a twentieth (weight/volume) in 0.32M sucrose. After centrifuging the homogenate at 1000 g for 10 minutes at 0° C., the supernatant was centrifuged at 30,000 g for 20 minutes at 4° C. The residue was suspended in 20 volumes of Tris buffer HCl 50 mM pH 7.4 and centrifuged at 30,000 g for 20 minutes at 4° C. The new residue obtained was placed in 50 ml of Krebs Tris buffer HCl pH 7.4
# 2 ml of the suspension in the presence of ^3 H diazepam at a concentration of 10^-9 M were then incubated for 30 minutes at 0° C: (i) alone, (ii) with increasing concentrations of the product to be tested or, (iii) to determine the non-specific fixation, with non-radioactive diazepam at a concentration of 10^-6 M. The incubated suspension were filtered on Whatman GF/C and the filters were washed twice with 5 ml of Krebs Tris buffer HCl pH 7.4 at 0° C. The radioactivity of the filters was measured by liquid scintillation and the activity of the product was expressed in C.I.50, the concentration inhibiting 50% of the specific bond of ^3 H diazepam.
# [2] = test system: mice; assay: Acute toxicity, oral route in mice (LD0); assay type: in vivo
# Method: The lethal doses LD0 of the different compounds tested after administration by oral route in mice were evaluated. The maximum dose not provoking any mortality in 8 days was called LD0 and the results obtained are in Table II.
# [3] = test system: level of serous corticosterone; assay: Activity on serous level of corticosterone after stress from noise; assay type: in vivo; details: Rattus norvegicus, 1 h; rats, oral, stress from noise (90 decibels) one hour after dosing; read-out: DE50 (dose which reduced the increase in the level of serous corticosterone by 50%)
# Method: C. Activity on serous level of corticosterone after stress from noise.
# Groups of 5 rats were formed the day before the test and placed in a quiet room. The compounds were administered orally the following day between 8 and 9 o'clock in the morning. One hour afterwards, stress was applied which consisted of taking the animals from the cage and placing them in a room where a radio was playing loudly (90 decibels), then half an hour later, giving them an intraperitoneal puncture without injection. Ten minutes after this, the rats were anesthetized with halothane and samples of blood were taken by decapitation. The levels of serous corticosterone were then determined.
# The results are expressed in DE50, that is to say in a dose of the compound tested which reduced the increase in the level of serous corticosterone by 50% in animals treated in comparison with the control animals. The results were DE50 in mg/kg of <50 and <100 for the compounds of Examples 2 and 4, respectively. Stress was less noticeable in the treated animals and those animals had therefore a degree of anxiety less than that of the control animals.
Compound,IC50 [1],LD0 (maximum dose not provoking any mortality in 8 days) [2],ED50 [3]
"O=c1c2cnc3ccccc3c2on1-c1ccccc1 [Example 1, 2-phenylisoxazolo(4,5-c)quinolin-3-(2H)-one]",120 nM,≥ 400 mg/kg,
"O=c1c2cnc3ccc(F)cc3c2on1-c1ccccc1 [Example 2, 8-fluoro-2-phenylisoxazolo(4,5-c)quinolin-3-(2H)-one]",400 nM,≥ 400 mg/kg,< 50 mg/kg
"COc1ccc2c(c1)ncc1c(=O)n(-c3ccccc3)oc12 [Example 3, 7-methoxy-2-phenylisoxazolo(4,5-c)quinolin-3-(2H)-one]",,≥ 200 mg/kg,
"COc1ccc2ncc3c(=O)n(-c4ccccc4)oc3c2c1 [Example 4, 8-methoxy-2-phenylisoxazolo(4,5-c)quinolin-3-(2H)-one]",2460 nM,200 mg/kg,< 100 mg/kg
"O=c1c2cnc3ccc(C(F)(F)F)cc3c2on1-c1ccccc1 [Example 5, 8-trifluoromethyl-2-phenylisoxazolo(4,5-c)quinolin-3-(2H)-one]",,≥ 200 mg/kg,
"O=c1c2cnc3ccc(Cl)cc3c2on1-c1ccccc1 [Example 7, 8-chloro-2-phenylisoxazolo(4,5-c)quinolin-3-(2H)-one]",,≥ 100 mg/kg,
